Columns and labels:
BRD9 = molecular target: T1, BRD9 (Homo sapiens, UniProt Q9H8M2); test: Immunoblot of BRD9 in HEK293 BRD9-HiBiT/FF/CAS9 cells; assay type: cell-based; parameters: host or cells: HEK293/BRD9-HiBiT knock-in; clone and BRD9-HiBiT/CAS9/FF clone
T1 sequence (Q9H8M2 1-597): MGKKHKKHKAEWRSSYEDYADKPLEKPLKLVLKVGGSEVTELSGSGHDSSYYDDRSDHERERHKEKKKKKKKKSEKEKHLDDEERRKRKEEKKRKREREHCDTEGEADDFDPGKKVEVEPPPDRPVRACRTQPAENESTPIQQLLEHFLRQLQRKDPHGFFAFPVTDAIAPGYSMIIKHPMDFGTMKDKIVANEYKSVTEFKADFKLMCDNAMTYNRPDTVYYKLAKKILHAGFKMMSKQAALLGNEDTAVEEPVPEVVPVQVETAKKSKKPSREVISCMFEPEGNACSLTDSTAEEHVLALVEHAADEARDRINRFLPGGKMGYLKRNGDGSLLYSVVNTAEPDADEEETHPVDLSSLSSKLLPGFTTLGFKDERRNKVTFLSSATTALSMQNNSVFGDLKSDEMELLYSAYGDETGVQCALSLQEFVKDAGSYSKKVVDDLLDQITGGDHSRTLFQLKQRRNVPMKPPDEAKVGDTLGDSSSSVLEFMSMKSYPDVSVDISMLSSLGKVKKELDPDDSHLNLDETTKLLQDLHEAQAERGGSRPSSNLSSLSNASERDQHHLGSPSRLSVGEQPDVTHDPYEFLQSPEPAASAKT
Description: Whole cell lysates for immunoblotting were prepared by pelleting cells at 4 °C (300 g) for 3 min. Cell pellets were then washed 1x with PBS and resuspended in RIPA lysis buffer (VWR, cat # 97063-270) supplemented with protease (Thermo Scientific, cat # A32955) and phosphatase (Thermo Scientific, cat # A32957) inhibitor tablets. Lysates were clarified at 16,000 × g for 15 min at 4 °C prior to quantification by Lowry assay (Bio-Rad cat # 5000113 and cat # 5000114). Whole-cell lysates were loaded into 4–20% Criterion TGX Precast 18 well gels (Bio-Rad, cat # 5671094) and separated by electrophoreses at 120 V for 1 h. The gels were transferred to a nitrocellulose membrane using the Trans-Blot Turbo (Bio-Rad) for 7 min and then blocked for 1 h at room temperature in Odyssey blocking buffer (LICOR Biosciences, cat # 927-50000). Membranes were probed with the appropriate primary antibodies (diluted 1:1000) overnight at 4 °C in 20% Odyssey blocking buffer in 1x TBST. Membranes were washed three times with 1x TBST (5 min per wash), and then incubated with IRDye goat anti-mouse (LICOR, cat # 926-32210) or goat anti-rabbit (LICOR, cat # 926-32211) secondary antibody diluted 1:10,000 in 20% Odyssey blocking buffer for 1 h at room temperature. After three 5-min washes with 1x TBST, the immunoblots were visualized using the ODYSSEY Infrared Imaging System (LICOR). Alternatively, SDS-PAGE resolved proteins were transferred to a PVDF membrane using a wet blotting system (Invitrogen). Membranes were blocked in 5% Milk-PBS-Tween 20 for 1 h and incubated with primary antibody over night at 4 °C. Secondary antibodies (secondary antibody: anti-rabbit, goat pAb to Rb-IgG (Abcam, #7090); secondary antibody: anti-mouse, sheep IgG HRP-linked (GE healthcare, #NA931V)) were incubated for 1 h at room temperature (RT) before blots were developed on film using the detection kit SuperSignal West Femto Maximum Sensitivity Substrate (Thermo Fisher, #34096).

[1] = molecular target: T2, DCAF1(WDR) with additional 10 µM BTK (Homo sapiens, UniProt Q06187+Q9Y4B6, E1398S); test: DCAF1 TR-FRET, cooperative format with 10 µM BTK; assay type: binding; conditions: cooperative format (+ BTK in Fig. 6b); ± SD (n); read-out: IC50 Alpha DCAF1 TR-FRET
T2 construct: 2 nM human DCAF1(1073-1399)_E1398S-Avi-His; human BTK (G389-S659); His6 (C); His (PreScission site) (N); made in house; host or cells: Sf9 insect cells (both chains)
Description: Competition assay conditions consist of 20 µL total volume in white 384-well plates (Greiner), in 30 mM phosphate buffer pH 7.4 containing 140 mM NaCl, 0.01% Tween20, 1 mM TCEP and 1% final DMSO. Tested compounds at 14 different concentrations were pre-incubated at 22 °C for 30 min with a large excess of 10 µM human BTK (G389-S659) or 10 µM human BRD9-BD(130-250) in the cooperative assay or with buffer in standard binary assay. […] Samples were then incubated at 22 °C for 30 min before reading using a Tecan infinite M-1000 or PheraStar FSX (excitation 340 nm, emission 490 and 520 nm). DCAF1 protein was omitted in the negative control. IC50 fitting was carried out using an in-house developed software (Novartis Helios software application, unpublished, a publicly available alternative would be e.g., Graphpad Prism) using the methods described by Fomenko et al.[93] (regression algorithms for nonlinear dose-response curve fitting). Following normalization of activity values for the wells to % inhibition (% inhibition = [(high control-sample)/(high control-low control)] × 100). Data analysis could also be carried out using GraphPad Prism without prior normalization. The reported IC50 values are the average of at least two independent experiments.

T2 sequence (Q9Y4B6 1073-1399 E1398S): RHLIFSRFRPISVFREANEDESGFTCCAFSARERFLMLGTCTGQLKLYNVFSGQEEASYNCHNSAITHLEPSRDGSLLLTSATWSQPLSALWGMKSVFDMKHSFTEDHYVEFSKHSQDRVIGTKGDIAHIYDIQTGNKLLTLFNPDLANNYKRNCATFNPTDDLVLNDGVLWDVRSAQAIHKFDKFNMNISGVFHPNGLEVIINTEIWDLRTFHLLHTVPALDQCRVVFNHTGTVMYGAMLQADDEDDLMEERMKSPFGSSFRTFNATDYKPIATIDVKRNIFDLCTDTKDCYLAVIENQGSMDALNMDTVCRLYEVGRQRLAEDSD
T2 sequence (Q06187 389-659): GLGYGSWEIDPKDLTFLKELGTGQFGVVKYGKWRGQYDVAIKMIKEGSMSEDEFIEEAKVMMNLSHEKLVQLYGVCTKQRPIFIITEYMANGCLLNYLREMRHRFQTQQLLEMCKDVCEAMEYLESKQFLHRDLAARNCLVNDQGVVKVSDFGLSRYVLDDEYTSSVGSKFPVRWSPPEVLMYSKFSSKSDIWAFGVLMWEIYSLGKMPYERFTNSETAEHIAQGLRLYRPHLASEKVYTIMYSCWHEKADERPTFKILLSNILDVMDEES

CC(=O)N1CCN(c2ccc3c(NCCN)nc(C4(c5ccc(Cl)cc5)CCCCC4)nc3c2)CC1 [compound 13] was tested, and the “BRD9 protein reduction by individual binders” value (BRD9; 1000 nM, 6 h) was “No BRD9 protein reduction”.

Cc1c(NC(=O)c2ccc(C(C)(C)O)cc2F)cc(F)cc1-c1ncnc2[nH]c(-c3ccc(CNCCOCCOCCOCCOCCOCCOCCOCCOCCOCCOCCOCCOCCC(=O)N4CCN(c5ccc6c(NCCN)nc(C7(c8ccc(Cl)cc8)CCCCC7)nc6c5)CC4)cc3)cc12 [DBt-5] gave an IC50 [1] of 282 ± 84 nM.

In the case of Cc1c(NC(=O)N2CC(O)(CC(C)(C)C)C2)cc(F)cc1-c1ncnc2[nH]c(-c3cnn(CC(=O)N4CCC5(CC4)CN(CCNC(=O)CCCC(=O)N4CCN(c6ccc7c(NCCN)nc(C8(c9ccc(Cl)cc9)CCCCC8)nc7c6)CC4)CCO5)c3)cc12 [DBt-10], the IC50 [1] is reported as 82 ± 39 nM.

COc1cc(-c2cn(C)c(=O)c3cnccc23)c(OC)cc1CN1CCC(OCCCCCC(=O)N2CCN(c3ccc4c(NCCN)nc(C5(c6ccc(Cl)cc6)CCCCC5)nc4c3)CC2)CC1 [DBr-1] was tested, and the BRD9 protein loss (BRD9; 1000 nM, 6 h, HEK293 cells) was “about 90%”, the BRD9 degradation (BRD9; 1000 nM, after 30 min) was 90% and the DC50 (BRD9; 6 h, HEK293 cells, immunoblot, read-out: DC50 BRD9 estimated from dose-response curve) was ~500 nM.

— PMC10766610, “DCAF1-based PROTACs with activity against clinically validated targets overcoming intrinsic- and acquired-degrader resistance” (Nature Communications, 2024)
